How the values were obtained:
Assay type in all cases: functional
NCI-H322M = test: Cytotoxicity against Homo sapiens (human) NCI-H322M cells after 48 hr by sulforhodamine B assay
PC-3 = test: Cytotoxicity against Homo sapiens (human) PC3 cells after 48 hr by sulforhodamine B assay; conditions: PC-3, 48 h
SK-MEL-28 = test: Cytotoxicity against Homo sapiens (human) SK-MEL-28 cells after 48 hr by sulforhodamine B assay; conditions: SK-MEL-28, 48 h
ACHN = test: Cytotoxicity against Homo sapiens (human) ACHN cells after 48 hr by sulforhodamine B assay
HCT-15 = test: Cytotoxicity against Homo sapiens (human) HCT15 cells after 48 hr by sulforhodamine B assay; conditions: HCT-15, 48 h
SF-268 [1] = test: Cytotoxicity against Homo sapiens (human) SF268 cells assessed as cell growth at 10^-4 M after 48 hr by […] assay; conditions: SF-268, 48 h, read-out: Activity
NCI-H460 [2] = test: Cytotoxicity against Homo sapiens (human) NCI-H460 cells after 48 hr by sulforhodamine B assay; conditions: NCI-H460, 48 h
CCRF-CEM = test: Cytotoxicity against Homo sapiens (human) CCRF-CEM cells after 48 hr by sulforhodamine B assay
NCI-H460 [3] = test: Cytotoxicity against Homo sapiens (human) NCI-H460 cells assessed as cell growth at 10^-4 M after 48 hr by Alamar blue assay; conditions: NCI-H460, 48 h, read-out: Activity
COLO 205 = test: Cytotoxicity against Homo sapiens (human) COLO205 cells after 48 hr by sulforhodamine B assay; conditions: COLO 205, 48 h
Hs-578T = test: Cytotoxicity against Homo sapiens (human) Hs 578T cells after 48 hr by sulforhodamine B assay
U-251 = test: Cytotoxicity against Homo sapiens (human) U251 cells after 48 hr by sulforhodamine B assay; conditions: U-251, 48 h
786-0 = test: Cytotoxicity against Homo sapiens (human) 786-0 cells after 48 hr by sulforhodamine B assay; conditions: 786-0, 48 h
NCI-H522 = test: Cytotoxicity against Homo sapiens (human) NCI-H522 cells after 48 hr by sulforhodamine B assay; conditions: NCI-H522, 48 h
UO-31 = test: Cytotoxicity against Homo sapiens (human) UO31 cells after 48 hr by sulforhodamine B assay; conditions: UO-31, 48 h
BT-549 = test: Cytotoxicity against Homo sapiens (human) BT549 cells after 48 hr by sulforhodamine B assay; conditions: BT-549, 48 h
MCF7 = test: Cytotoxicity against Homo sapiens (human) MCF7 cells after 48 hr by sulforhodamine B assay; conditions: MCF7, 48 h
UACC-62 = test: Cytotoxicity against Homo sapiens (human) UACC62 cells after 48 hr by sulforhodamine B assay; conditions: UACC-62, 48 h
NCI-H23 = test: Cytotoxicity against Homo sapiens (human) NCI-H23 cells after 48 hr by sulforhodamine B assay; conditions: NCI-H23, 48 h
[4] = Cytotoxicity against Homo sapiens (human) NCI-ADR-RES cells after 48 hr by sulforhodamine B assay
NCI-H226 = test: Cytotoxicity against Homo sapiens (human) NCI-H226 cells after 48 hr by sulforhodamine B assay; conditions: NCI-H226, 48 h
SF-268 [5] = test: Cytotoxicity against Homo sapiens (human) SF268 cells after 48 hr by sulforhodamine B assay; conditions: SF-268, 48 h
HOP-62 = test: Cytotoxicity against Homo sapiens (human) HOP62 cells after 48 hr by sulforhodamine B assay; conditions: HOP-62, 48 h
MDA-MB-231 = test: Cytotoxicity against Homo sapiens (human) MDA-MB-231 cells after 48 hr by sulforhodamine B assay; conditions: MDA-MB-231, 48 h
HOP-92 = test: Cytotoxicity against Homo sapiens (human) HOP92 cells after 48 hr by sulforhodamine B assay; conditions: HOP-92, 48 h
KM12 = test: Cytotoxicity against Homo sapiens (human) KM12 cells after 48 hr by sulforhodamine B assay; conditions: KM12, 48 h
SN12C = test: Cytotoxicity against Homo sapiens (human) SN12C cells after 48 hr by sulforhodamine B assay
MOLT-4 = test: Cytotoxicity against Homo sapiens (human) MOLT4 cells after 48 hr by sulforhodamine B assay; conditions: MOLT-4, 48 h
T47D = test: Cytotoxicity against Homo sapiens (human) T47D cells after 48 hr by sulforhodamine B assay
MDA-MB-435 = test: Cytotoxicity against Homo sapiens (human) MDA-MB-435 cells after 48 hr by sulforhodamine B assay; conditions: MDA-MB-435, 48 h
SK-OV-3 = test: Cytotoxicity against Homo sapiens (human) SKOV3 cells after 48 hr by sulforhodamine B assay; conditions: SK-OV-3, 48 h
[6] = read-out: LC50 (the source's name)

Nc1nc(Cl)c2ncn(Cc3ccccc3CCl)c2n1
TGI (NCI-H322M): 29.5 µM | CC50 (NCI-H322M; [6]): 69.2 µM | LC50 (concentration causing 50% cell kill) (PC-3): > 100 µM | TGI (PC-3): 67.6 µM | LC50 (concentration killing 50% of cells) (SK-MEL-28): 74.1 µM | TGI (SK-MEL-28): 20.9 µM | TGI (ACHN): 21.9 µM | CC50 (ACHN; [6]): 75.9 µM | TGI (HCT-15): 7.41 µM | CC50 (HCT-15; [6]): > 100 µM | growth at 100 µM (SF-268 [1]): 67% | TGI (NCI-H460 [2]): 37.1 µM | CC50 (NCI-H460 [2]; [6]): > 100 µM | TGI (CCRF-CEM): > 100 µM | CC50 (CCRF-CEM; [6]): > 100 µM | growth at 100 µM (NCI-H460 [3]): 0% | TGI (COLO 205): > 100 µM | CC50 (COLO 205; [6]): > 100 µM | LC50 (Hs-578T): > 100 µM | TGI (Hs-578T): 77.6 µM | LC50 (concentration killing 50% of cells) (U-251): 72.4 µM | TGI (U-251): 13.5 µM | LC50 (786-0): > 100 µM | TGI (786-0): 52.5 µM | TGI (NCI-H522): 9.33 µM | CC50 (NCI-H522; [6]): > 100 µM | LC50 (concentration causing 50% net cell kill) (UO-31): > 100 µM | TGI (UO-31): 44.7 µM | LC50 (50% lethal concentration) (BT-549): 57.5 µM | TGI (BT-549): 22.9 µM | LC50 (concentration killing 50% of cells) (MCF7): 87.1 µM | TGI (MCF7): 24.6 µM | LC50 (concentration causing 50% net cell kill) (UACC-62): 8.51 µM | TGI (UACC-62): 4.37 µM | TGI (NCI-H23): 8.91 µM | CC50 (NCI-H23; [6]): 78.9 µM | LC50 (concentration killing 50% of cells) [4]: > 100 µM | TGI [4]: 34.7 µM | TGI (NCI-H226): 10 µM | CC50 (NCI-H226; [6]): 53.7 µM | TGI (SF-268 [5]): 14.5 µM | CC50 (SF-268 [5]; [6]): 97.2 µM | TGI (HOP-62): 61.7 µM | CC50 (HOP-62; [6]): > 100 µM | LC50 (MDA-MB-231): 63.1 µM | TGI (MDA-MB-231): 9.55 µM | TGI (HOP-92): 30.9 µM | CC50 (HOP-92; [6]): > 100 µM | TGI (KM12): 38.9 µM | CC50 (KM12; [6]): 97.2 µM | LC50 (50% lethal concentration) (SN12C): 19.5 µM | TGI (SN12C): 5.62 µM | TGI (MOLT-4): > 100 µM | CC50 (MOLT-4; [6]): > 100 µM | LC50 (T47D): > 100 µM | TGI (T47D): 83.2 µM | LC50 (MDA-MB-435): > 100 µM | TGI (MDA-MB-435): 26.9 µM | LC50 (SK-OV-3): > 100 µM | TGI (SK-OV-3): 52.5 µM
